Results published in publication PMC10582325 (Frontiers in Pharmacology, 2023).

Experiments:
CYP2C19 = CYP2C19 (Homo sapiens, UniProt P33261); assay: Direct CYP inhibition in human liver microsomes with marker probe substrates; settings: read-out: Inhibition, IC50; HLM, CYP2C19 probe substrate
CYP2D6 = CYP2D6 (Homo sapiens, UniProt P10635); assay: as above; settings: read-out: Inhibition, IC50; HLM, CYP2D6 probe substrate
[1] = Plasma concentration 3 h post dose in murine model of tuberculosis; type: in vivo, BALB/c mice infected with M. tuberculosis H37Rv; settings: TB model
[2] = Steady-state plasma pharmacokinetics of BDQ, M2 and TBI-166 in BALB/c mice; settings: for AUC(0-t): Plasma; for t 1/2: after last dose
CYP1A2 = biological target: T1, CYP1A2 (Homo sapiens, UniProt P05177); assay: Direct CYP inhibition in human liver microsomes with marker probe substrates; settings: read-out: Inhibition, IC50; HLM, CYP1A2 probe substrate
T1 sequence (P05177 1-516): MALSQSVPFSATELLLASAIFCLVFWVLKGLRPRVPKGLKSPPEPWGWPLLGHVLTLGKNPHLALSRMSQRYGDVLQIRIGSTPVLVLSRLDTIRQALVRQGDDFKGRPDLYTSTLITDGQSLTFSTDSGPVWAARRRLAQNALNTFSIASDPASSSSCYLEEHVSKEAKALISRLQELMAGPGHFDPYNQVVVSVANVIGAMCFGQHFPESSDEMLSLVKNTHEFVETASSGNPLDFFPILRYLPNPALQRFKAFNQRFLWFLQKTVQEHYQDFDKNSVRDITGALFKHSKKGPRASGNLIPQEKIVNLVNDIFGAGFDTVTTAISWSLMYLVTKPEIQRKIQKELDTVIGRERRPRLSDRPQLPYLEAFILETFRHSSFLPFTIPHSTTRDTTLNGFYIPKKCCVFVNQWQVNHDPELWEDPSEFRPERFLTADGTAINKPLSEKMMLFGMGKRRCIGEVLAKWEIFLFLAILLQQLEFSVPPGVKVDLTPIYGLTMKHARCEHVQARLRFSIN

CYP2C9 = CYP2C9 (Homo sapiens, UniProt P11712); assay: as above; settings: read-out: Inhibition, IC50; HLM, CYP2C9 probe substrate
CYP2C9, sequence (P11712 whole entry): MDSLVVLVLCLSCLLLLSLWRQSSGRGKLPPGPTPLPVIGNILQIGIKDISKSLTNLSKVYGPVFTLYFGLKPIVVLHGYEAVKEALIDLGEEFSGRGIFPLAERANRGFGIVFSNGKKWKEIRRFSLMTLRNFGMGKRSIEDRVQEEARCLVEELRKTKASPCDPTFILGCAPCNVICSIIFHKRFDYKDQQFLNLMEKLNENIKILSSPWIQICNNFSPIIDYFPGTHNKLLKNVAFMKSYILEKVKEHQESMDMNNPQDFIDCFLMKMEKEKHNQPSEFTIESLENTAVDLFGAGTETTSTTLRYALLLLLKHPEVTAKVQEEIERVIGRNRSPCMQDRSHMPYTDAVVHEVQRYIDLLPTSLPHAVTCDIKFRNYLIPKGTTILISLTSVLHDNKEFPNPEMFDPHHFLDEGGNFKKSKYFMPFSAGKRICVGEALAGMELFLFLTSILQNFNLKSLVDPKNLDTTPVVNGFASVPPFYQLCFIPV

[3] = parameters: method as in Xu et al., 2019; settings: ref Xu et al., 2019; cited from earlier work
CYP2C8 = biological target: T2, CYP2C8 (Homo sapiens, UniProt P10632); assay: Direct CYP inhibition in human liver microsomes with marker probe substrates; settings: read-out: Inhibition, IC50; HLM, CYP2C8 probe substrate
T2 sequence (P10632 1-490): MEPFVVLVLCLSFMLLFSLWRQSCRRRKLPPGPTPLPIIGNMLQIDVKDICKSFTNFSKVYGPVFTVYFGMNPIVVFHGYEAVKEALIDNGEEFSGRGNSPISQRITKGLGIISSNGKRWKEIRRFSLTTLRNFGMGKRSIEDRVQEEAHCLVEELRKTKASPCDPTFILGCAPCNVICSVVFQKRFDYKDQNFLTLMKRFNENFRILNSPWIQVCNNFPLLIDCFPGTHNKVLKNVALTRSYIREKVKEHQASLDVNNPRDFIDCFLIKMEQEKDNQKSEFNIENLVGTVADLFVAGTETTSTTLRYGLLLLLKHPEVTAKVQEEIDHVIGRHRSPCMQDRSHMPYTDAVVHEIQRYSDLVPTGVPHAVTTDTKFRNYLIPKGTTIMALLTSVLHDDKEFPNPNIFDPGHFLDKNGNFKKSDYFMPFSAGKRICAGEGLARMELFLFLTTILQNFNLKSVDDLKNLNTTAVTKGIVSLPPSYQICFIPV

CYP2E1 = CYP2E1 (Homo sapiens, UniProt P05181); assay: as above; settings: read-out: Inhibition, IC50; HLM, CYP2E1 probe substrate
CYP2E1, sequence (P05181 whole entry): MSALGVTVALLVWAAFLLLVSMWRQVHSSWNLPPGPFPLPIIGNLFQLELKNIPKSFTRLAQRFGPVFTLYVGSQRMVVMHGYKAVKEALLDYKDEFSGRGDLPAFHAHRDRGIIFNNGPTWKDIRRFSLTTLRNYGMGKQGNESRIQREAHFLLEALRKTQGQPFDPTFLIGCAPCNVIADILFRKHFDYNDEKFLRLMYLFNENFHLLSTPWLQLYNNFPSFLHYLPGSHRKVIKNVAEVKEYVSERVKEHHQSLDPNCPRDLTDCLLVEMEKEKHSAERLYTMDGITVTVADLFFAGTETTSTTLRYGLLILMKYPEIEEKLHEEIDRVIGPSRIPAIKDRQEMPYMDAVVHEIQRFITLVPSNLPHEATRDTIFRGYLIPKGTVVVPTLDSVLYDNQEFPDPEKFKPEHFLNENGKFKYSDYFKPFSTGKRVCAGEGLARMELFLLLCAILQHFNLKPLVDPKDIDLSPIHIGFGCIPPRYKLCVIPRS

[4] = Stability of BDQ, M2 and TBI-166 in mice plasma (LC-MS/MS validation)
[5] = plasma, TBI-166 group (TBI-166 alone)

CYP2C19, sequence (P33261 whole entry): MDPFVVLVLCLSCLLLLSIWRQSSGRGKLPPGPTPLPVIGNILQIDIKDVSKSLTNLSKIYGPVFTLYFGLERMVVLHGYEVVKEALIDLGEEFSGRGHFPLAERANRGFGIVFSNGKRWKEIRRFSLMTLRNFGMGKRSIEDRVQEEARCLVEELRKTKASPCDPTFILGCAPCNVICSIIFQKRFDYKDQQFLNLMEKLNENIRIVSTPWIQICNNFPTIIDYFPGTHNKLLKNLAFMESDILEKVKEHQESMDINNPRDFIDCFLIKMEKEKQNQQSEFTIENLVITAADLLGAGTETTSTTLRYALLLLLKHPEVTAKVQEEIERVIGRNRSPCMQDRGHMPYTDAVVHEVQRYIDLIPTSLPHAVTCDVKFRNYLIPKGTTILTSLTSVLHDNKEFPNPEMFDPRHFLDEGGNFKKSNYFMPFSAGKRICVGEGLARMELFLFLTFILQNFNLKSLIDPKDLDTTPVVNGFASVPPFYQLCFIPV
CYP2D6, sequence (P10635 whole entry): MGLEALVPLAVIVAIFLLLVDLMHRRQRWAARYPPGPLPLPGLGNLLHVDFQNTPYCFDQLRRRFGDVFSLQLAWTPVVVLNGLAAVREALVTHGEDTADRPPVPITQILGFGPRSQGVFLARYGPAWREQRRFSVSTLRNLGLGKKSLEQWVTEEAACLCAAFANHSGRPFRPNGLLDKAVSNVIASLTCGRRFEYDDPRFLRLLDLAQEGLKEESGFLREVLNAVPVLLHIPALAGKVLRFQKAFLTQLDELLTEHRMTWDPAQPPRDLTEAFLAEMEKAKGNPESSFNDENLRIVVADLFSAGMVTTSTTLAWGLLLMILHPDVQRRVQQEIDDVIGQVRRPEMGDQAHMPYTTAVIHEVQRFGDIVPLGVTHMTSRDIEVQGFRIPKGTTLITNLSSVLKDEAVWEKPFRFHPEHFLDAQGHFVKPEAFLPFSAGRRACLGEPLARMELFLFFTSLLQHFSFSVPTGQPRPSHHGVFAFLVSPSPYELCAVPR

Question: Which IC50 (CYP2C19) does the source give for `COc1ncccc1Nc1cc2nc3ccccc3n(-c3ccc(OC(F)(F)F)cc3)c-2cc1=NC1CCC(OC)CC1` (stereo not shown) [TBI-166, Pyrifazimine] here?
Answer: 4490 nM

Question: And the IC50 (CYP2D6)?
Answer: 1600 nM

Question: What about the “Mean plasma concentration at three hours after oral administration” value (“Mean plasma concentration at three hours” below) ([1]; BDQ + TBI-166 group, W4) of the same compound?
Answer: 1383.02 ± 411.59 ng/mL

Question: What about the “Mean plasma concentration at three hours” value ([1]; BDQ + TBI-166 group, W8) of the same compound?
Answer: 1330.40 ± 133.72 ng/mL

Question: What about the “Mean plasma concentration at three hours” value ([1]; BDQ group (25 mg/kg), W4, LLOQ 5, 5, 15 ng/mL for BDQ, TBI-166, M2) of the same compound?
Answer: <LLOQ

Question: What about the “Mean plasma concentration at three hours” value ([1]; BDQ group (25 mg/kg), W8, LLOQ 5, 5, 15 ng/mL for BDQ, TBI-166, M2) of the same compound?
Answer: <LLOQ

Question: What about the “Mean plasma concentration at three hours” value ([1]; TBI-166 group (20 mg/kg), W4, LLOQ 5, 5, 15 ng/mL for BDQ, TBI-166, M2) of the same compound?
Answer: 1375.79 ± 123.54 ng/mL

Question: And the “Mean plasma concentration at three hours” value ([1]; TBI-166 group (20 mg/kg), W8, LLOQ 5, 5, 15 ng/mL for BDQ, TBI-166, M2)?
Answer: 1323.76 ± 311.89 ng/mL

Question: And the “C max, p.o. dosage” value ([2]; Cmax observed at human equivalent dose of 20 mg, plasma, mice)?
Answer: 700 ng/mL

Question: And the “AUC(0-t)” value ([2]; BDQ + TBI-166 group (Table S4))?
Answer: 62050 ± 2520 ng·h/mL

Question: And the “AUC(0-t)” value ([2]; TBI-166 group (Table S4))?
Answer: 68950 ± 4840 ng·h/mL

Question: What about the “AUC(0-last)” value ([2]; plasma, BDQ + TBI-166 group) of the same compound?
Answer: 62,050 ± 2,519 h·ng/mL

Question: What about the “AUC(0-last) as percent of single-drug group” value ([2]; plasma, BDQ + TBI-166 group) of the same compound?
Answer: 91%

Question: And the “AUC(0-∞)” value ([2]; plasma, BDQ + TBI-166 group)?
Answer: 103,720 h·ng/mL

Question: And the C max ([2]; plasma, BDQ + TBI-166 group)?
Answer: 709.45 ± 71.13 ng/mL

Question: What about the “MRT(0-t)” value ([2]; plasma, BDQ + TBI-166 group) of the same compound?
Answer: 65.18 h

Question: What about the T max ([2]; plasma, BDQ + TBI-166 group) of the same compound?
Answer: 1 h

Question: And the “t 1/2” value ([2]; plasma, BDQ + TBI-166 group (BDQ 25 mg/kg + TBI-166 20 mg/kg, gavage QD 21 days))?
Answer: 132.67 h

Question: And the “t 1/2” value ([2]; plasma, TBI-166 group (TBI-166 20 mg/kg alone, gavage QD 21 days))?
Answer: 142.03 h

Question: And the “AUC(0-last)” value [2, 5]?
Answer: 68,953 ± 4,843 h·ng/mL

Question: What about the “AUC(0-∞)” value [2, 5] of the same compound?
Answer: 119,114 h·ng/mL

Question: And the C max [2, 5]?
Answer: 1,043.84 ± 92.53 ng/mL

Question: What about the “MRT(0-t)” value [2, 5] of the same compound?
Answer: 66.37 h

Question: And the T max [2, 5]?
Answer: 1 h

Question: What about the “AUC(0-last) as percent of single-drug group” value ([2]; plasma, TBI-166 group (reference)) of the same compound?
Answer: 100%

Question: What about the Cmax ([2]; read-out: C max, p.o. dosage, Cmax observed at human equivalent dose of 20 mg, plasma, mice) of the same compound?
Answer: 1190 nM

Question: And the IC50 (CYP1A2)?
Answer: 550 nM

Question: And the IC50 (CYP2C9)?
Answer: 5450 nM

Question: And the “concentration in liver tissue” value [3]?
Answer: 32280 ng/mL

Question: And the IC50 (CYP2C8)?
Answer: > 50000 nM

Question: What about the IC50 (CYP2E1) of the same compound?
Answer: 930 nM

Question: And the “Stability in mice plasma, RE” value ([4]; 4℃ for 24 h, 15 ng/mL)?
Answer: -15.07%

Question: What about the “Stability in mice plasma, RE” value ([4]; 4℃ for 24 h, 75 ng/mL) of the same compound?
Answer: 1.87%

Question: And the “Stability in mice plasma, RE” value ([4]; 4℃ for 24 h, 750 ng/mL)?
Answer: -12.65%

Question: And the “Stability in mice plasma, RE” value ([4]; -40℃ for 7 d, 15 ng/mL)?
Answer: -2.20%

Question: What about the “Stability in mice plasma, RE” value ([4]; -40℃ for 7 d, 75 ng/mL) of the same compound?
Answer: -1.01%

Question: What about the “Stability in mice plasma, RE” value ([4]; -40℃ for 7 d, 750 ng/mL) of the same compound?
Answer: -13.53%

Question: And the “Stability in mice plasma, RE” value ([4]; Freeze-thaw three cycles, 15 ng/mL)?
Answer: -14.27%

Question: What about the “Stability in mice plasma, RE” value ([4]; Freeze-thaw three cycles, 75 ng/mL) of the same compound?
Answer: -5.39%

Question: What about the “Stability in mice plasma, RE” value ([4]; Freeze-thaw three cycles, 750 ng/mL) of the same compound?
Answer: -13.50%

Question: What about the “Stability in mice plasma, RE” value ([4]; In auto-sample for 24 h, 15 ng/mL) of the same compound?
Answer: 18.87%

Question: What about the “Stability in mice plasma, RE” value ([4]; In auto-sample for 24 h, 75 ng/mL) of the same compound?
Answer: -12.61%

Question: What about the “Stability in mice plasma, RE” value ([4]; In auto-sample for 24 h, 750 ng/mL) of the same compound?
Answer: -7.77%

Question: What about the “Stability in mice plasma, RE” value ([4]; Room temperature for 24 h, 15 ng/mL) of the same compound?
Answer: -6.20%

Question: What about the “Stability in mice plasma, RE” value ([4]; Room temperature for 24 h, 75 ng/mL) of the same compound?
Answer: -6.81%

Question: What about the “Stability in mice plasma, RE” value ([4]; Room temperature for 24 h, 750 ng/mL) of the same compound?
Answer: -10.81%
